Results published in patent US5159085A, “2-anilino phenylacetic acid derivatives as inhibitors of PLA2 and lipoxygenase” (American Home Products Corporation, priority 1991, dated 1992).

Assays:
[1] = test system: Rat Peritonitis Fluid PLA2; assay: In vitro isolated phospholipase A2 assay, rat peritonitis fluid PLA2; format: biochemical
[2] = test system: Pancreatic Lipase PLA2; assay: In vitro isolated phospholipase A2 assay, pancreatic lipase PLA2; format: biochemical
[3] = biological target: Bee Venom PLA2 (Apis mellifera, UniProt P00630); assay: biochemical; conditions: read-out: % Inhibition at a concentration of 10 μM, Bee Venom
Bee Venom PLA2, sequence (P00630 34-167 limits assumed): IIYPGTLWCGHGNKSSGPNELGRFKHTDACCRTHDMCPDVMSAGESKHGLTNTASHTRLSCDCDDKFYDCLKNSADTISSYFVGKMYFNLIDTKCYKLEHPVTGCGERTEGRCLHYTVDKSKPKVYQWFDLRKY

[4] = test system: 6-keto-PGF1α /TxB2; assay: In vivo murine zymosan peritonitis assay, 6-keto-PGF1α (cyclooxygenase pathway); parameters: species or system mouse (male CD-1)
Procedure: The compounds of the invention are evaluated for their ability to inhibit the lipoxygenase and/or cyclooxygenase pathways of arachidonic acid metabolism in the in vivo murine zymosan peritonitis assay.
This assay is carried out as follows:
Male CD-1 mice (8 weeks old) are placed in plastic boxes in groups of six. Animals are injected with 1 ml i.p. of either 1% zymosan in pyrogen free 0.9% saline or saline (unstimulated control). Compounds are dosed orally 1 hour prior to zymosan injection. Twenty minutes after zymosan injection, the mice are asphyxiated by CO2 inhalation and the peritoneal cavity is lavaged with 2 ml ice cold Hanks Balanced Salt Solution (HBSS) without CaCl2, MgSO4 ·7H2 O and MgCL2 ·6H2 O. Peritoneal lavage fluid from each mouse is removed by syringe and placed in 5 ml plastic test tubes put on ice and volume is noted. Preparation of samples for evaluation by ELISA is as follows: Samples are centrifuged at 800×g for 15 minutes; 1 ml of the supernatant is added to 8 ml ice cold methanol and kept at -70° C. overnight to precipitate protein; and samples are then centrifuged at 800×g for 15 minutes, followed by a drying procedure in a Savant speed vac concentrator. The samples are reconstituted with 1 ml ice cold ELISA buffer and stored at -70° C. until assayed. The assay for eicosanoids (LTC4 and 6-keto-PGF1α) is performed according to conventional ELISA procedures.
Compounds to be tested orally are suspended in 0.5% Tween 80. Compounds to be tested intraperitoneally are suspended in 0.5% methylcellulose in 0.9% saline.
The total metabolite level in lavage fluid/mouse is calculated and the significance is determined by a one-way analysis of variance with LSD comparisons to control (p≤0.05). Drug effects are expressed as a percent change from control values.

[5] = biological target: T1, LTD4 (isolated guinea pig trachea) (Cavia porcellus, UniProt Q2NNR5); assay: In vitro isolated guinea pig trachea assay, LTD4 antagonist activity; parameters: species or system guinea pig (male Hartley); conditions: Table VII
T1 construct: the neck is opened and the trachea removed; from tissue; host or cells: tracheal rings of male Hartley guinea pigs
T1 sequence (Q2NNR5 1-340): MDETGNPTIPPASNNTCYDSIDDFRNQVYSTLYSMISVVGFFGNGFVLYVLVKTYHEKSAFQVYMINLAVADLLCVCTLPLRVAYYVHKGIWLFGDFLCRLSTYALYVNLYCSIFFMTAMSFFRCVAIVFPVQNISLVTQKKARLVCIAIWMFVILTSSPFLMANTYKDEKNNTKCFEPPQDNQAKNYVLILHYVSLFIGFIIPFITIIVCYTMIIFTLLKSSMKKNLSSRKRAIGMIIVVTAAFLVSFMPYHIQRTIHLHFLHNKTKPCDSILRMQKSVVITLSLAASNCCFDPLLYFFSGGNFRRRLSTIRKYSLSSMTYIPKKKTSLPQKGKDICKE
Procedure: The LTD4 antagonist activity of the compounds of the invention is assessed in the in vitro isolated guinea pig trachea assay. This assay is carried out as follows: Male Hartley guinea pigs (350-400 g) are euthanized by a blow to the head, the neck is opened and the trachea removed. The trachea is maintained in aerated physiological salt solution, cleared of connective tissue and fat and cut into rings approximately 2 mm in width (usually containing two cartilaginous segments per ring). Two pieces of silk suture are then passed through the lumen of the tracheal ring and are tied around the cartilage, one on each side of the trachealis muscle. […] The tracheal rings are maintained at 2 g resting tension and equilibrated for 45 minutes (with frequent washing and readjustment of resting tension). […] All responses to LTD4 in an individual tissue are measured as a percentage of the reference contraction of that tissue to carbachol. LTD4 antagonist activity is determined by comparison of the concentration response curves of LTD4 in the presence and absence of antagonist. Assessment of the relative rightward shift of the antagonist treated curve relative to the solvent (control) treated tissue is calculated as a concentration ratio (Eq. A) and used in subsequent calculations to derive an antagonist pKB value (Eqs B and C). […]

SMILES	% Inhibition at a concentration of 10 μM, Rat Peritonitis Fluid [1] [%]	% Inhibition at a concentration of 10 μM, Pancreatic Lipase [2] [%]	inhibition at 10 µM [3] [%]	% Inhibition 6-keto-PGF ([4]; 50 mg/kg p.o., negative values denote potentiation) [%]	% Inhibition 6-keto-PGF ([4]; 100 mg/kg p.o.) [%]	Kb [5] [nM]	ED50 ([4]; Mus musculus, po, read-out: ED50 6-keto-PGF) [mg/kg]
O=C(O)Cc1cc(OCc2ccc3ccccc3n2)ccc1Nc1c(Cl)cccc1Cl [Example 2, 2-[(2,6-Dichlorophenyl)amino]-5-(2-quinolylmethoxy)benzene acetic acid]	69.7	90.1	38.7	-25	65	550	
O=C(O)Cc1ccccc1Nc1c(Cl)cccc1Cl [diclofenac, reference compound]							0.77
